One series deals with A2780. Kind of series: cells. The conditions noted are these: Homo sapiens, A2780, 72 h.
The nature of series [1]: Volume of distribution at steady state in NCR nude mouse at 5 mg/kg, iv. The class given is ADME, organism-based. Details: dose 5 mg/kg, route intravenous. The conditions noted are these: in vivo, read-out: Vdss.
Series [2] in a line: Cmax in NCR nude mouse at 10 mg/kg, po. As to conditions: in vivo. The class given is ADME, organism-based. Set-up: dose 10 mg/kg, route oral.
A further series relates to HCT-116. Kind of series: Antiproliferative activity against human HCT116 cells assessed as cell viability after 72 hrs. Type of series: functional, cell-based. As to conditions: HCT-116, 72 h.
The test system of the next series is HT-1080. Kind of series: Antiproliferative activity against human HT1080 cells assessed as cell viability after 72 hrs. Type of series: functional, cell-based. As to conditions: HT-1080, 72 h.
In the next series the test system is PC-3. Kind of series: Antiproliferative activity against human PC3 cells assessed as cell viability after 72 hrs. The class given is functional, cell-based. The conditions noted are these: PC-3, 72 h.
For series [3], the system named is U-251. Kind of series: Antiproliferative activity against human U251 cells assessed as cell viability after 72 hrs by SRB assay. The class given is functional, cell-based. As to conditions: U-251, 72 h. Background: Sulforhodamine B stains cellular protein and so reports cell mass.
Series [4] relates to U-251. In words: Antitumor activity against human U251 cells xenografted in athymic nu/nu mouse assessed as reduction in tumor size at 25 mg/kg, po QD for 7 days measured on day 13. Type of series: functional, organism-based. Set-up: dose 25 mg/kg. For orientation: Xenograft models place foreign cells or tissue in a host animal.
The nature of series [5]: Metabolic stability in mouse liver microsomes assessed as compound remaining at 1 uM after 30 mins LC-MS analysis. Type of series: ADME, Microsome. The conditions noted are these: liver microsomes, read-out: Stability. In general terms: Liver microsomes are a subcellular fraction often used to study metabolism.
In the next series the test system is Mus musculus. In words: Toxicity in human U251 cells xenografted in athymic nu/nu mouse assessed as change in body weight at 25 mg/kg, po QD for 7 days. Type of series: organism-based, U-251. Details: dose 25 mg/kg, route oral. The conditions noted are these: in vivo, 168 h.
Series [6] in a line: Oral bioavailability in NCR nude mouse at 10 mg/kg. Type of series: ADME, organism-based. As to conditions: in vivo.
Series [7] is described as follows: Metabolic stability in human liver microsomes assessed as compound remaining at 1 uM after 30 mins LC-MS analysis. The conditions noted are these: liver microsomes, read-out: Stability. Type of series: ADME, Microsome.
Another series can be described thus: in vitro. As to conditions: dog, MDCK.
The nature of series [8]: Intrinsic clearance in human hepatocytes at 1 uM after 10 mins by LC-MS/MS analysis. Type of series: ADME, cell-based, Hepatocyte. As to conditions: read-out: CLH.
The nature of series [9]: Fraction unbound in human plasma at 5 uM after 4 hrs by LC-MS/MS analysis. Type of series: ADME, cell-free.
Series [10] in a line: Fraction unbound in mouse plasma at 5 uM after 4 hrs by LC-MS/MS analysis. The class given is ADME, cell-free.
Series [11] is described as follows: Intrinsic clearance in CD-1 mouse hepatocytes at 1 uM after 10 mins by LC-MS/MS analysis. The class given is ADME, cell-based, Hepatocyte. As to conditions: read-out: CLH.
A short description of series [12]: AUC (infinity) in NCR nude mouse at 10 mg/kg, po. The class given is ADME, organism-based. Details: time infinity, dose 10 mg/kg, route oral. The conditions noted are these: plasma.
The nature of series [13]: Clearance in NCR nude mouse plasma at 5 mg/kg, iv. The class given is ADME, organism-based. Details: dose 5 mg/kg, route intravenous.
The test system of a further series is MIA PaCa-2. Kind of series: Antiproliferative activity against human MIAPaCa2 cells assessed as cell viability after 72 hrs. The class given is functional, cell-based. The conditions noted are these: MIA PaCa-2, 72 h.
Series [14] can be described thus: Tmax in NCR nude mouse at 10 mg/kg, po. As to conditions: in vivo. The class given is ADME, organism-based. Set-up: dose 10 mg/kg, route oral.

Activity calls are given as the source filed them. The rule behind the calls is not given here.

Turning to `O=C(NCc1ccc(S(=O)(=O)c2cc(F)cc(F)c2)cc1)c1ccc2nccn2c1`, the IC50 (in general, the concentration that inhibits the measured activity by half) came out at 2 nM in the series on A2780; 2 nM with HCT-116; 2.1 nM in the series with HT-1080; 2.7 nM in the series with PC-3; 1.8 nM in the series on U-251 [3]; 7.4 nM with MIA PaCa-2. For the same compound, in series [1], the Vd amounted to 6.7 L/kg. Also, the Cmax – broadly, the peak of the concentration-time curve – in series [2] was found to be 1210 nM. The result in the series on U-251 [4] was Active. The remaining at 0.5 h, 1 µM came out at 39% in series [5] and 53% in [7]. In addition, in the series on Mus musculus, the Activity result is “Non-toxic”. For the same compound, the bioavailability (commonly the share of a dose that reaches the circulation, judged against a reference dose that is usually intravenous) in series [6] came out at 41.1%. Moreover, in “in vitro”, the Papp A→B (as a rule, the apparent permeability from the apical to the basolateral side of a cell layer) at 10 µM was 12 ×10⁻⁶ cm/s. Further, the figures for the CLint scaled at 1 µM in series [8] and in series [11] were 10 mL/min/kg and 42 mL/min/kg, respectively. The fraction unbound – broadly, the share of the substance not bound to proteins or other matrix – at 4 h, 5 µM in series [9] was 0.06; in series [10], 0.067. The AUC(0-inf) (as a rule, the area under the concentration-time curve extrapolated to infinity) in [12] is 3.06 µM·h. For the same compound, the clearance (usually the volume of plasma or blood freed of the substance per unit of time) in series [13] was determined as 52.4 mL/min/kg. Besides, in series [14], the Tmax – broadly, the time at which the peak concentration occurs – turned out to be 15 min.

The values are drawn from ChEMBL document CHEMBL2417368, “Structure-based discovery of novel amide-containing nicotinamide phosphoribosyltransferase (nampt) inhibitors” (J Med Chem, 2013).
